Source: US20060063143A1, “Immortalized hypothalamic neuronal cell lines” (priority 2002, published 2006)

System: immortalized hypothalamic subclones N-7, N-22, N-29
Assay: Functional cAMP response of immortalized subclones to peptide stimulation (RIA)
Assay type: cell-based, mouse
Conditions: cell lines N-7, N-22 and N-29; 10^-7 M (100 nM) peptide, 15 minutes, IBMX 100 μM
Source text: The onset of mood disorders, such as depression or anxiety, involve the altered function of multiple loci in the brain that regulate emotionality, memory and motivation (41-43). However, the inability to describe a cellular and molecular aetiology of these conditions likely reflects, in part, the existence of critical neurological circuits not yet understood. A novel family of neuropeptides on the carboxy-terminus of the teneurin transmembrane proteins (32, 44) is implicated in neuronal communication. In one embodiment, they modulate stress responses and anxiety (data not shown) and likely play a role in some psychiatric illnesses. In another embodiment, they are implicated as modulators of cell cycle and cell proliferation. These sequences are called teneurin C-terminal-associated peptides (TCAP-1 to 4) [SEQ. ID NOs 1-9]. These peptides may also have a cleavable amidation signal at the C-terminus, such as “GRR” or “GKR”. […]
The functional cAMP response of the immortalized subclones to TCAP peptide stimulation was also assessed and the results are shown in FIG. 18. […] N-7, N-22 and N-29 were analyzed for the cAMP response to peptide stimulation. […] Cells were scraped from the plate and kept at −20° C. until the amounts of intracellular cAMP were determined in triplicate by RIA (Biotechnologies Inc., Stoughton, Mass.) according to the manufacturer's instructions.

rtTCAP-3: teneurin C-terminal-associated peptide, rainbow trout TCAP-3, SEQ ID NO 9 plus amidation signal GKR; stress-regulating peptide provided by Dr. D. Lovejoy (QLLSGRKVLGYDGYYVLSIEQYPELADSANNIQFLRQSEI; C-terminal GKR amidation signal; Trout TCAP3)
TCAP responsiveness of cell lines (cAMP response): responsive
